Several values for one entry are separate records, joined by “and”; a condition that tells them apart may be missing. Identical values can stand only once.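 Interpolation was linear, between the two tested concentrations surrounding the appropriate level; five concentrations were tested over 48 hours in 96-well plates. GI50 is the concentration that inhibits growth by half. TGI: concentration producing complete growth inhibition.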
What was measured:
Test in all cases: NCI anticancer screen, dose series, 48 h
A498 renal = test system: A498 renal
BT-549 breast = test system: BT-549 breast
M14 melanoma = test system: M14 melanoma
MDA-MB-231 breast = test system: MDA-MB-231 breast
SR leukemia = test system: SR leukemia
SW-620 colon = test system: SW-620 colon
UO-31 renal = test system: UO-31 renal
HOP-62 NSCLC = test system: HOP-62 NSCLC
HT29 colon = test system: HT29 colon
U251 CNS = test system: U251 CNS

Structure (SMILES) | GI50 (A498 renal) | TGI (A498 renal) | GI50 (BT-549 breast) | TGI (BT-549 breast) | GI50 (M14 melanoma) | TGI (M14 melanoma) | GI50 (MDA-MB-231 breast) | TGI (MDA-MB-231 breast) | GI50 (SR leukemia) | TGI (SR leukemia) | GI50 (SW-620 colon) | TGI (SW-620 colon) | GI50 (UO-31 renal) | TGI (UO-31 renal) | GI50 (HOP-62 NSCLC) | TGI (HOP-62 NSCLC) | GI50 (HT29 colon) | TGI (HT29 colon) | GI50 (U251 CNS) | TGI (U251 CNS)
COc1cc2cc(Oc3ccc(NC(=O)Nc4cccc(C(F)(F)F)c4)cc3)c(C)nc2cc1OCCN1CCCCC1 | 1.45 µM | 2.9 µM | 1.78 µM | 3.28 µM | 1.79 µM | 3.27 µM | 1.36 µM | 2.73 µM | 0.479 µM | 2.52 µM | 1.98 µM | 3.6 µM | 1.45 µM | 2.79 µM |  |  |  |  |  | 
Nc1cccc2c1C(=O)N(C1CCC(=O)NC1=O)C2=O (centres undefined) | > 100 µM | > 100 µM | > 100 µM | > 100 µM | > 100 µM | > 100 µM | > 100 µM | > 100 µM | > 100 µM | > 100 µM | > 100 µM | > 100 µM | > 100 µM | > 100 µM | > 100 µM | > 100 µM | > 100 µM | > 100 µM | > 100 µM | > 100 µM
CC1(C)CC(=O)C2=C(C1)NC(SSC1=C(C#N)C(c3ccccc3)C3=C(CC(C)(C)CC3=O)N1)=C(C#N)C2c1ccccc1 (centres undefined) | 30.4 mg/L | 59.8 mg/L | 27.6 mg/L | 48.6 mg/L | 22.5 mg/L | 43.6 mg/L | 23.4 mg/L | 45.1 mg/L | 26.5 mg/L | 103 mg/L | 28.6 mg/L | 51.8 mg/L | 21 mg/L | 40.5 mg/L | 72.3 mg/L | > 150 mg/L | 26.8 mg/L | 48.2 mg/L | 33.2 mg/L | 64.2 mg/L
O=C1C2CC(Cl)C(SSC3CC4C(=O)N(SC(Cl)(Cl)C(Cl)Cl)C(=O)C4CC3Cl)CC2C(=O)N1SC(Cl)(Cl)C(Cl)Cl (centres undefined) |  | 7.73 µM |  | 3.41 µM |  | 2.88 µM |  | 3.16 µM |  | 1.21 µM |  | 5.09 µM |  | 4.82 µM |  | 8.64 µM |  |  |  | 3.75 µM
Cc1ccc(S(=O)(=O)NC(CCC(=O)Nc2ccc(Cl)cc2)C(=O)Nc2ccc(Cl)cc2)cc1 (centres undefined) | 0.717 µM | 5.34 µM | 0.967 µM | 6.71 µM | 0.0541 µM | 6.58 µM | 0.263 µM | 4.23 µM | 0.197 µM | 6.76 µM | 0.555 µM | 8.59 µM | 0.401 µM | 7.28 µM | 0.62 µM | 2.07 µM | 1.35 µM | 9.85 µM | 0.574 µM | 5.13 µM
COc1cc2c(cc1OC)C(=O)C(Br)CC2 (centres undefined) | 11.3 µM | 23.6 µM | 2.15 µM | 5.85 µM | 2.72 µM | 7.1 µM | 3.56 µM | 13.4 µM | 3.49 µM | > 100 µM | 2.71 µM | 6.39 µM | 2.38 µM | 6.77 µM | 6.09 µM | 18.5 µM | 3.72 µM | 12.1 µM | 12.8 µM | 25.7 µM
COc1cccc(NC(=O)c2sc3nc4c(cc3c2N)CCCC4)c1 | 0.349 µM | 14.2 µM | 0.497 µM | 25.4 µM |  |  | 3.88 µM | 26.4 µM | 0.217 µM | 12.7 µM | 0.45 µM | > 100 µM | 0.859 µM | > 100 µM | 0.59 µM | 18.2 µM |  |  | 0.607 µM | 19.2 µM
COc1cc(CCc2cc(NC(=O)c3ccc(N4C[C@@H](C)N[C@@H](C)C4)cc3)n[nH]2)cc(OC)c1 | 0.014 µM and < 0.0107 µM | 0.0838 µM and 0.12 µM | 5.58 µM and 1.08 µM | > 10 µM and 17.2 µM | 7.13 µM and 2.77 µM | > 10 µM and 10.9 µM | > 10 µM and 5.81 µM | > 10 µM and 19.7 µM | 3.75 µM and 2.34 µM | > 10 µM and 5.42 µM | 6.49 µM and 3.5 µM | > 10 µM and 15.6 µM | 2.84 µM and 2.7 µM | > 10 µM and 13.9 µM | > 10 µM and 7.2 µM | > 10 µM and 20.3 µM | 3.86 µM and 3.33 µM | > 10 µM and 13.3 µM | > 10 µM and 3.86 µM | > 10 µM and 18 µM
CC(Cc1ccc(Cl)cc1Cl)NO (centres undefined) |  | > 100 µM |  | > 100 µM |  | > 100 µM |  | > 100 µM |  | > 100 µM |  | > 100 µM |  | > 100 µM |  | > 100 µM |  | > 100 µM |  | > 100 µM
O=[N+]([O-])c1ccc(Sc2ncccn2)c([N+](=O)[O-])c1 | 7.6 µM | 20.7 µM | 1.27 µM | 4.19 µM | 5.26 µM | 18.4 µM | 5.31 µM | 17.1 µM | 1.2 µM | 17.9 µM | 2.9 µM | 8.05 µM | 1.93 µM | 7.36 µM | 15.1 µM | 30.1 µM | 3.39 µM | 12.9 µM | 4.46 µM | 15.3 µM
COc1ccc(-c2cc(-c3ccc(Nc4nc(Nc5ccc(Cl)cc5)nc(Nc5ccc(Cl)cc5)n4)cc3)nc(N)c2C#N)cc1 | 2.3 µM | 5.84 µM | 3.06 µM | 9.11 µM | 1.97 µM | 4.36 µM | 1.54 µM | 3.23 µM | 0.485 µM | 3.29 µM | 0.666 µM | 1.37 µM | 1.57 µM | 3.26 µM | 11.9 µM | > 42.3 µM | 2.25 µM | 13 µM | 2.29 µM | 6.58 µM
O=C(c1cccs1)c1c(C(F)(F)F)n([O-])c2ccc(C(F)(F)F)cc2[n+]1=O | 1.65 µM | 3.04 µM | 0.178 µM | 0.34 µM | 0.791 µM | 1.87 µM | 0.189 µM | 0.357 µM | 0.301 µM | 1.28 µM | 0.162 µM | 0.325 µM | 0.169 µM | 0.318 µM | 0.298 µM | 0.767 µM | 0.19 µM | 0.364 µM | 0.179 µM | 0.322 µM
Cc1ccc2c(c1)NC(c1ccc(C(=O)O)cc1)c1cccn1-2 (centres undefined) |  | 64.9 µM |  | > 100 µM |  | > 100 µM |  | > 100 µM |  | > 100 µM |  | > 100 µM |  |  |  | 58.6 µM |  | > 100 µM |  | > 100 µM
CCCCCCCCCCCCc1ccc(C(=O)/C=C/C(=O)O)cc1 | 13.2 µM | 26.7 µM | 1.91 µM | 5.33 µM | 1.79 µM | 4.17 µM | 1.85 µM | 4.5 µM | 0.423 µM | 3.07 µM | 1.43 µM | 3.67 µM | 1.63 µM | 3.01 µM | 14 µM | 29.9 µM | 1.81 µM | 4 µM | 5.63 µM | 18.9 µM
Cn1cc(-c2ccc(=O)n(Cc3cccc(-c4ncc(OCCN5CCOCC5)cn4)c3)n2)cn1 | 60.1 µM | > 100 µM | 32.1 µM | > 100 µM | 84.2 µM | > 100 µM | > 78 µM | > 100 µM | 76.4 µM | > 100 µM | > 100 µM | > 100 µM | 64.8 µM | > 100 µM | > 62.7 µM | > 100 µM | > 100 µM | > 100 µM | 92.1 µM | > 100 µM
C1CCC([PH+](C2CCCCC2)C2CCCCC2[PH+](C2CCCCC2)C2CCCCC2)CC1.[Au].[CH-]1CCCCC1C1CCCC[N-]1 (centres undefined) | 0.122 µM | 0.581 µM | 0.294 µM | 1.36 µM | 0.425 µM | 2.27 µM |  |  | 0.392 µM | > 100 µM |  |  | 1.36 µM | 2.69 µM | 0.314 µM | 1.89 µM |  |  |  | 
Nc1ccn(C=C=CCO)c(=O)n1 |  |  | > 1000 µM | > 1000 µM | > 1000 µM | > 1000 µM | > 1000 µM | > 1000 µM |  | > 1000 µM | > 1000 µM | > 1000 µM | > 1000 µM | > 1000 µM | > 1000 µM | > 1000 µM | > 1000 µM | > 1000 µM | > 1000 µM | > 1000 µM
OB([O][Hg][c]1ccccc1)[O][Hg][c]1ccccc1 | 0.98 µM | 2.48 µM | 0.226 µM | 0.779 µM | 0.283 µM | 0.977 µM | 0.628 µM | 1.89 µM |  |  | 0.191 µM | 0.5 µM | 0.539 µM | 1.63 µM | 1.04 µM | 3.39 µM | 0.384 µM | 1.75 µM | 0.507 µM | 1.89 µM
N#C/C(=C\c1c(-c2ccccc2)[nH]c2ccccc12)C(=O)c1ccc(Cl)cc1 | 2.82 µM | 14.7 µM | 5.83 µM | 79.7 µM | 0.725 µM | > 100 µM | 4.09 µM | 47.8 µM |  |  | 0.554 µM | > 100 µM | 5.85 µM | 36.3 µM | 5.41 µM | 26 µM | 0.476 µM | 21.4 µM | 1.11 µM | 16.2 µM
Cc1cc(NC(=O)C2c3ccccc3C(=O)N(CC(C)C)C2c2cccs2)no1 (centres undefined) |  |  | > 100 µM | > 100 µM |  |  | 21.2 µM | 93.4 µM | 35.5 µM | > 100 µM | > 100 µM | > 100 µM | 30.2 µM | > 100 µM | > 100 µM | > 100 µM | 69.5 µM | > 100 µM | 84.2 µM | > 100 µM

From PubChem BioAssay (NCI)
